This note sets out measurements from US20230077362A1 (CORTEVA AGRISCIENCE LLC, priority 2019, published 2023).

Assay [1] has as its system Beet Armyworm (Spodoptera exigua) ("BAW"), second instar larvae. The assay is described as follows: Bioassay on beet armyworm (BAW), 128-well diet tray assay. In kind it is in vivo. Particulars: Spodoptera exigua, read-out: BAW (Biological Results, rating). Summed up:
(§1)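 Sealed trays, 25° C., 14:10 light:dark, 5–7 d. Per-well % mortality recorded, mean of eight wells reported.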

Assay [2] has as its system Cabbage Looper (Trichoplusia ni) ("CL"), second instar larvae. The assay is described as follows: Bioassay on cabbage looper (CL), 128-well diet tray assay. In kind it is in vivo. Particulars: Trichoplusia ni, read-out: CL (Biological Results, rating). Summed up: as §1

As to `Cc1ccc(OCCC(F)(F)F)c(N2C(=O)CS/C2=N\C(=O)Nc2ccc(-c3ncn(-c4ccc(C(F)(F)F)cn4)n3)cc2F)c1` [Compound J307, (Z)-1-(2-Fluoro-4-(1-(5-(trifluoromethyl)pyridin-2-yl)-1H-1,2,4-triazol-3-yl)phenyl)-3-(3-(5-methyl-2-(3,3,3-trifluoropropoxy)phenyl)-4-oxothiazolidin-2-ylidene)urea], the pest or weed control at 50 µg/cm2 in assay [1] and in assay [2] was 50 to 100% each time.

For `Cc1ccc(COCC(F)(F)F)c(N2C(=O)CS/C2=N\C(=O)Nc2ccc(-c3ccn(-c4ccc(C(F)(F)F)cn4)n3)cc2F)c1` [Compound J308, (Z)-1-(2-Fluoro-4-(1-(5-(trifluoromethyl)pyridin-2-yl)-1H-pyrazol-3-yl)phenyl)-3-(3-(5-methyl-2-((2,2,2-trifluoroethoxy)methyl)phenyl)-4-oxothiazolidin-2-ylidene)urea], the pest or weed control at 50 µg/cm2 in assay [1] and in assay [2] was 50 to 100% in each case.

As to `COC(C)c1ccc(C)cc1N1C(=O)CS/C1=N\C(=O)Nc1ccc(-c2ccn(-c3ccc(C(F)(F)F)cn3)n2)cc1F` (stereo not shown) [Compound J309, (Z)-1-(2-Fluoro-4-(1-(5-(trifluoromethyl)pyridin-2-yl)-1H-pyrazol-3-yl)phenyl)-3-(3-(2-(1-methoxyethyl)-5-methylphenyl)-4-oxothiazolidin-2-ylidene)urea], the pest or weed control at 50 µg/cm2 in assay [1] and in assay [2] was 50 to 100% throughout.

As for `Cc1ccc(COCC(F)(F)F)c(N2C(=O)CS/C2=N\C(=O)Nc2ccc(-c3ccn(-c4ccc(C(F)(F)F)cn4)n3)cc2C)c1` [Compound J310, (Z)-1-(3-(5-Methyl-2-((2,2,2-trifluoroethoxy)methyl)phenyl)-4-oxothiazolidin-2-ylidene)-3-(2-methyl-4-(1-(5-(trifluoromethyl)pyridin-2-yl)-1H-pyrazol-3-yl)phenyl)urea], the pest or weed control at 50 µg/cm2 in assay [1] and in assay [2] was 50 to 100% throughout.

Consider `COC(C)c1ccc(C)cc1N1C(=O)CS/C1=N\C(=O)Nc1ccc(-c2ccn(-c3ccc(C(F)(F)F)cn3)n2)cc1C` (stereo not shown) [Compound J311, (Z)-1-(3-(2-(1-Methoxyethyl)-5-methylphenyl)-4-oxothiazolidin-2-ylidene)-3-(2-methyl-4-(1-(5-(trifluoromethyl)pyridin-2-yl)-1H-pyrazol-3-yl)phenyl)urea], for which the pest or weed control at 50 µg/cm2 in assay [1] and in assay [2] was 50 to 100% each time.

In the case of `Cc1ccc(OCCC(F)(F)F)c(N2C(=O)C(Cl)S/C2=N\C(=O)Nc2ccc(-c3ncn(-c4ccc(C(F)(F)F)cc4)n3)cc2)c1` (stereo not shown) [Compound J317, (Z)-1-(5-Chloro-3-(5-methyl-2-(3,3,3-trifluoropropoxy)phenyl)-4-oxothiazolidin-2-ylidene)-3-(4-(1-(4-(trifluoromethyl)phenyl)-1H-1,2,4-triazol-3-yl)phenyl)urea], the pest or weed control at 50 µg/cm2 in assay [1] and in assay [2] was 50 to 100% throughout.

In the case of `COc1ccc(OCCC(F)(F)F)c(N2C(=O)CS/C2=N\C(=O)Nc2ccc(-c3ncn(-c4ccc(OC(F)(F)F)cc4)n3)cc2)c1` [Compound J320, (Z)-1-(3-(5-Methoxy-2-(3,3,3-trifluoropropoxy)phenyl)-4-oxothiazolidin-2-ylidene)-3-(4-(1-(4-(trifluoromethoxy)phenyl)-1H-1,2,4-triazol-3-yl)phenyl)urea], the pest or weed control at 50 µg/cm2 in assay [1] and in assay [2] was 50 to 100% each time.

`CN(C)c1ccc(OCCC(F)(F)F)c(N2C(=O)CS/C2=N\C(=O)Nc2ccc(-c3ncn(-c4ccc(OC(F)(F)F)cc4)n3)cc2)c1` [Compound J321, (Z)-1-(3-(5-(Dimethylamino)-2-(3,3,3-trifluoropropoxy)phenyl)-4-oxothiazolidin-2-ylidene)-3-(4-(1-(4-(trifluoromethoxy)phenyl)-1H-1,2,4-triazol-3-yl)phenyl)urea]: the pest or weed control at 50 µg/cm2 in assay [1] and in assay [2] was 50 to 100% each time.
